Laboratory results published in ChEMBL document CHEMBL1201862, “PubChem BioAssay data set” (2004).
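Step 1: Grow cells in 96-well plates. Step 2: Expose to compound for 48 hours at 5 concentrations. Step 3: Interpolate endpoints linearly; if unreached, use highest concentration. The concentration for 50% growth inhibition is given as GI50.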 Activity calls are given as the source filed them. No stated cut-off is given here; in the data, active = GI50 up to about 1.1 µM and inactive = higher.

How the values were obtained:
Experiment in all cases: NCI tumour cell line growth inhibition, 48 h
NCI-H522 = system: NCI-H522
HCC 2998 = system: HCC 2998
OVCAR-8 = system: OVCAR-8
RXF 393 = system: RXF 393
EKVX = system: EKVX
CCRF-CEM = system: CCRF-CEM
CAKI-1 = system: CAKI-1
SNB-19 = system: SNB-19
SK-MEL-5 = system: SK-MEL-5
KM12 = system: KM12
UO-31 = system: UO-31
SW-620 = system: SW-620
MOLT-4 = system: MOLT-4
SN12C = system: SN12C
HOP-62 = system: HOP-62
OVCAR-4 = system: OVCAR-4
HT-29 = system: HT-29
K562 = system: K562
HOP-92 = system: HOP-92
DMS-114 = system: DMS-114

Row | Structure (SMILES) | GI50 (NCI-H522) | GI50 (HCC 2998) | GI50 (OVCAR-8) | GI50 (RXF 393) | GI50 (EKVX) | GI50 (CCRF-CEM) | GI50 (CAKI-1) | GI50 (SNB-19) | GI50 (SK-MEL-5) | GI50 (KM12) | GI50 (UO-31) | GI50 (SW-620) | GI50 (MOLT-4) | GI50 (SN12C) | GI50 (HOP-62) | GI50 (OVCAR-4) | GI50 (HT-29) | GI50 (K562) | GI50 (HOP-92) | GI50 (DMS-114)
1 | CN(C)c1nc(N)c(C#N)c(C#N)c1C#N | 1.87 µM (inactive) | > 10 µM (inactive) | > 10 µM (inactive) | > 10 µM (inactive) | > 10 µM (inactive) | 3.08 µM (inactive) | > 10 µM (inactive) | > 10 µM (inactive) | > 10 µM (inactive) | > 10 µM (inactive) | > 10 µM (inactive) | 8.73 µM (inactive) | 3.28 µM (inactive) | > 10 µM (inactive) | > 10 µM (inactive) | > 10 µM (inactive) | > 10 µM (inactive) | > 4.61 µM (inactive) | > 10 µM (inactive) | –
2 | O=S(=O)(c1cccc(C(F)(F)F)c1)N1c2ccccc2-n2cccc2C1c1cccnc1 (stereo not drawn) | 15.4 µM (inactive) | 24.7 µM (inactive) | 44.3 µM (inactive) | > 38.7 µM (inactive) | > 100 µM (inactive) | 8.75 µM (inactive) | > 100 µM (inactive) | 32.6 µM (inactive) | 8.09 µM (inactive) | 19.2 µM (inactive) | 17.7 µM (inactive) | 16.5 µM (inactive) | 4.18 µM (inactive) | > 42.4 µM (inactive) | > 43.6 µM (inactive) | 24.8 µM (inactive) | 18.1 µM (inactive) | 9.12 µM (inactive) | 26.9 µM (inactive) | –
3 | COc1ccc2c(c1)-c1nn(CCN(C)C)c3ccc(C(=O)NCCCN(C)CCCNC(=O)c4ccc5c6c(c7cc(OC)ccc7nc46)NN5CCN(C)C)c(c13)N2 | < 0.01 µM (active) | 0.045 µM (active) | 0.0133 µM (active) | 0.0366 µM (active) | 0.143 µM (active) | < 0.01 µM (active) | 0.346 µM (active) | 0.0159 µM (active) | 0.0512 µM (active) | 0.0284 µM (active) | 0.183 µM (active) | 0.018 µM (active) | < 0.01 µM (active) | 0.0225 µM (active) | 0.0318 µM (active) | 0.0352 µM (active) | 0.0213 µM (active) | 0.0128 µM (active) | 0.0478 µM (active) | –
4 | CC(=O)OCC1OC(n2c(N)c(C#N)c(-c3ccccc3)c(C#N)c2=S)C(OC(C)=O)C(OC(C)=O)C1OC(C)=O (stereo not drawn) | 13 µM (inactive) | > 100 µM (inactive) | 34.9 µM (inactive) | 23.2 µM (inactive) | > 74.3 µM (inactive) | > 100 µM (inactive) | 44.3 µM (inactive) | 19 µM (inactive) | > 100 µM (inactive) | > 100 µM (inactive) | 45 µM (inactive) | > 100 µM (inactive) | > 100 µM (inactive) | > 100 µM (inactive) | 11.6 µM (inactive) | > 49.8 µM (inactive) | > 100 µM (inactive) | > 100 µM (inactive) | 11.8 µM (inactive) | –
5 | S=C(N/N=C\c1ccccn1)N(Cc1ccccn1)Cc1ccccn1 | 0.0637 µM (active) | 7.03 µM (inactive) | 0.367 µM (active) | 10.4 µM (inactive) | 0.721 µM (active) | < 0.019 µM (active) | 0.229 µM (active) | 3.47 µM (inactive) | 1.07 µM (active) | 1.49 µM (inactive) | 1.26 µM (inactive) | 0.333 µM (active) | 0.0582 µM (active) | 0.34 µM (active) | 2.71 µM (inactive) | 0.91 µM (active) | 0.0822 µM (active) | 0.205 µM (active) | 1.32 µM (inactive) | –
6 | CCC1CC2C(=O)N(c3ccccc3)C(=O)C2c2[nH]c3ccccc3c21 (stereo not drawn) | – | 29.3 µM (inactive) | 12.2 µM (inactive) | 21.5 µM (inactive) | 23.2 µM (inactive) | 26.9 µM (inactive) | – | 22.9 µM (inactive) | 30.8 µM (inactive) | 31.2 µM (inactive) | 31.6 µM (inactive) | 46.1 µM (inactive) | 20.2 µM (inactive) | 19.6 µM (inactive) | – | 4.61 µM (inactive) | 22.2 µM (inactive) | 25.4 µM (inactive) | – | 13.9 µM (inactive)
7 | CCOC(=O)NN(C(=O)OCC)C(C(=O)c1ccccc1)N(NC(=O)OCC)C(=O)OCC | > 100 µM (inactive) | > 100 µM (inactive) | > 100 µM (inactive) | > 100 µM (inactive) | > 100 µM (inactive) | > 100 µM (inactive) | > 100 µM (inactive) | > 100 µM (inactive) | > 100 µM (inactive) | > 100 µM (inactive) | > 100 µM (inactive) | > 100 µM (inactive) | > 100 µM (inactive) | > 100 µM (inactive) | > 100 µM (inactive) | > 100 µM (inactive) | > 100 µM (inactive) | > 100 µM (inactive) | > 100 µM (inactive) | –
8 | COc1ccc2c(c1)nc1n2C(N)=Nc2ccccc2S1 | 16.6 µM (inactive) | 31.8 µM (inactive) | 18.4 µM (inactive) | 30 µM (inactive) | 28.5 µM (inactive) | 2.55 µM (inactive) | > 100 µM (inactive) | 39.3 µM (inactive) | 7.45 µM (inactive) | 15.4 µM (inactive) | 26.4 µM (inactive) | 28.5 µM (inactive) | 3.69 µM (inactive) | 44.6 µM (inactive) | 53.1 µM (inactive) | 34.4 µM (inactive) | 17.7 µM (inactive) | 4.91 µM (inactive) | 3.79 µM (inactive) | –
9 | COc1cc2c(cc1OC)C(c1ccccc1CCCCl)=NCC2 | 20.8 µM (inactive) | 46.9 µM (inactive) | 97.5 µM (inactive) | > 100 µM (inactive) | 90.2 µM (inactive) | > 100 µM (inactive) | > 100 µM (inactive) | > 100 µM (inactive) | 23.3 µM (inactive) | 55.6 µM (inactive) | 85.9 µM (inactive) | 25.6 µM (inactive) | 80.4 µM (inactive) | 93.1 µM (inactive) | > 100 µM (inactive) | 91.4 µM (inactive) | 44.2 µM (inactive) | 35.8 µM (inactive) | 39.1 µM (inactive) | –
10 | C/C1=C\CC[C@@]2(C)O[C@@H]2C[C@@H]2[C@H](C/C(C)=C/CC1)OC(=O)[C@]21CO1 | 32.5 µM (inactive) | 78.9 µM (inactive) | > 100 µM (inactive) | > 100 µM (inactive) | > 100 µM (inactive) | 46.2 µM (inactive) | > 100 µM (inactive) | > 100 µM (inactive) | > 100 µM (inactive) | 28.8 µM (inactive) | > 100 µM (inactive) | 68.7 µM (inactive) | 22 µM (inactive) | 74.5 µM (inactive) | > 100 µM (inactive) | > 100 µM (inactive) | 69.3 µM (inactive) | 34.4 µM (inactive) | > 100 µM (inactive) | –
11 | CC(C)/C(Cl)=N/OC(NC(=O)Nc1ccc(Cl)c(Cl)c1)(C(F)(F)F)C(F)(F)F | 1.69 µM (inactive) | 20.1 µM (inactive) | 17.7 µM (inactive) | 3.42 µM (inactive) | 19.4 µM (inactive) | 2.16 µM (inactive) | 2.16 µM (inactive) | 20.2 µM (inactive) | 15.8 µM (inactive) | 18.2 µM (inactive) | 17.3 µM (inactive) | 1.81 µM (inactive) | 3.2 µM (inactive) | 11 µM (inactive) | 21.6 µM (inactive) | 13 µM (inactive) | 15.4 µM (inactive) | 3.05 µM (inactive) | 10.4 µM (inactive) | –
12 | CCCc1c[nH]c(-c2ccc(-c3cc(CCC)c(C=O)[nH]3)s2)c1 | 16 µM (inactive) | – | 13.6 µM (inactive) | 21.7 µM (inactive) | – | 21.8 µM (inactive) | – | 22 µM (inactive) | 16.9 µM (inactive) | 14.7 µM (inactive) | 0.0165 µM (active) | 17.4 µM (inactive) | 26.4 µM (inactive) | 15.6 µM (inactive) | – | 18.9 µM (inactive) | 5.38 µM (inactive) | 12.4 µM (inactive) | – | 14.1 µM (inactive)
13 | O=C1C=CC(=O)C1(Br)Br | 6.27 µM (inactive) | 16.2 µM (inactive) | 8.3 µM (inactive) | 6.37 µM (inactive) | 14.5 µM (inactive) | 7.55 µM (inactive) | 5.11 µM (inactive) | 17.1 µM (inactive) | 16.9 µM (inactive) | 13.1 µM (inactive) | 6.27 µM (inactive) | 10.1 µM (inactive) | 14.7 µM (inactive) | 7.96 µM (inactive) | 17.6 µM (inactive) | 17.6 µM (inactive) | 7.38 µM (inactive) | 10.2 µM (inactive) | 16.3 µM (inactive) | –
14 | COc1ccc(C2C=C(c3ccc4c(c3)OCO4)Oc3c2c(=O)oc2ccccc32)cc1OC (stereo not drawn) | 0.303 µM (active) | 0.506 µM (active) | 0.839 µM (active) | 0.252 µM (active) | 16.5 µM (inactive) | 0.406 µM (active) | 0.425 µM (active) | 0.422 µM (active) | 0.324 µM (active) | 0.443 µM (active) | 0.527 µM (active) | 0.468 µM (active) | 0.968 µM (active) | 1.36 µM (inactive) | > 100 µM (inactive) | > 100 µM (inactive) | 0.402 µM (active) | 0.299 µM (active) | 34 µM (inactive) | –
15 | O=[N+]([O-])c1ccc(-n2nc3ccc4c(no[n+]4[O-])c3[n+]2[O-])c([N+](=O)[O-])c1 | 1.72 µM (inactive) | 3.3 µM (inactive) | 2.4 µM (inactive) | 3.27 µM (inactive) | 12.2 µM (inactive) | 0.938 µM (active) | 2.42 µM (inactive) | 6.24 µM (inactive) | 2.79 µM (inactive) | 1.79 µM (inactive) | 5.27 µM (inactive) | 2.1 µM (inactive) | 1.95 µM (inactive) | 2.56 µM (inactive) | 3.77 µM (inactive) | 1.68 µM (inactive) | 4.69 µM (inactive) | 2.14 µM (inactive) | 2.96 µM (inactive) | –
